From patent publication US20240366640A1, “LYOPHILIZED FORMULATION SOLUTION AND LYOPHILIZED FORMULATION, AND METHOD AND USE THEREOF” (ASCENTAWITS PHARMACEUTICALS, LTD., priority 2021, published 2024)

Tests used:
[1] = Solubility of TH-302 by the saturated solution method (HPLC, external standard); assay type: physicochemical
Experimental: The solubility is measured in an experiment by the saturated solution method; that is, the solid TH-302 was directly charged into the solvent until insoluble matter or turbidity appears. After clarification for a period of time, the solution was directly filtered. The clarified filtrate was taken directly for determination of the concentration of TH-302. The resulting concentration is exactly the solubility of TH-302 in this solvent system. Please refer to Tables 1, 2, and 3 for specific solubility data.
For the method for measuring the concentration of TH-302 (mg/ml), please refer to the HPLC method described in the patent WO2008083101A1 owned by Threshold Pharmaceuticals Inc. (see Example 2. An Ethanol Formulation of TH302, for details); and the external standard method was used for quantification.

[2] = Saturated solubility of the drug in D5W solution (strong shaking); assay type: physicochemical; details: left to stand at room temperature for 24 hours
Experimental: The TH-302 sample was weighed accurately in an amount of about 60 mg, placed in a transparent vial, and added with 6 ml of dextrose 5% in water (D5W). The resulting solution was shaked vigorously for 2 minutes to obtain a solubility-stock solution. It was observed that the solubility-stock solution contained insoluble substances. Thus, the solubility-preserving solution was filtered and then became clear. […] This value was exactly the saturated solubility of the drug in D5W solution.

[3] = concentrate with 70% ethanol, 25% dimethlyacetamide, 5% polysorbate 80; mainly induced by dimethlyacetamide; WO2015013448A1; cited from earlier work

Cn1c(COP(=O)(NCCBr)NCCBr)cnc1[N+](=O)[O-] [TH-302]
Solubility ([1]; 1% Tween 80 aqueous solution (volume ratio)): 7.21 mg/mL
Solubility ([1]; 95% tert-butanol/5% ethanol (volume ratio), TH-302 purchased commercially): 9.98 mg/mL
Appearance of the filtered filtrate [2]: still clear
TH-302 administration reactions [3]: lip swelling and urticaria
